Measurements published in patent publication US20140228349A1, “5,7-SUBSTITUTED-IMIDAZO[1,2-C]PYRIMIDINES” (Array BioPharma Inc., priority 2011, published 2014).

How the values were obtained:
Assay type in all cases: biochemical
Human Tyk2 kinase domain = molecular target: T1, Human Tyk2 kinase domain (Homo sapiens, UniProt P29597); experiment: Tyk2 Inhibition Assay (Omnia kinase fluorescence peptide substrate); conditions: averaged IC50 ranges; 10 μM (Km app) or 1 mM ATP, 2 nM Tyk2
T1 construct: comprising amino acids 886 to 1187; His10 (10 histidine residues) (C, cleaved yes); made in house
T1 sequence (P29597 886-1187): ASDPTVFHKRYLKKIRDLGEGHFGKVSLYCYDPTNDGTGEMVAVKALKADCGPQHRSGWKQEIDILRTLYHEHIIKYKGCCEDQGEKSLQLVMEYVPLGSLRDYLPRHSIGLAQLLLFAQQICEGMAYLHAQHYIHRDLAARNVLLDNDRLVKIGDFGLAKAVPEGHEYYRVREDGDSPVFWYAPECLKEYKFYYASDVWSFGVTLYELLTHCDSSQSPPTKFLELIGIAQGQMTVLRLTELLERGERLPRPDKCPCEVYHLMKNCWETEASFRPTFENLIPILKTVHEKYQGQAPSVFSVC
Text: (§1) The assays described in Examples A, B, C and D for the determination of Tyk2, JAK1, JAK2 and JAK3 kinase activity, respectively, utilized the Omnia® Kinase fluorescence peptide substrate-based technology (Invitrogen). The specific components of the assay mixture are described in Examples A, B, C and D. In these assays, Mg^2+ is chelated upon phosphorylation of the Omnia peptide by the kinase to form a bridge between the chelation-enhanced fluorophore Sox and the phosphate, resulting in an increase in fluorescence emission at 485 nm when excited at […]. The reactions were therefore read at excitation 360 nm and emission was measured at 485 nm every 50 seconds for 45 minutes using a PerkinElmer EnVision Multilabel Plate Reader.
(§2) The final buffer conditions for Tyk2, JAK1, JAK2, and JAK3 assays were as follows: 25 mM HEPES, pH 7.4, 10 mM MgCl2, 0.01% Triton X-100 and 1 mM DTT.
(§3) Compounds were prepared at 50× the final concentration in DMSO by conducting 3-fold serial dilutions from a 500-μM intermediate dilution to give a 10-point dosing curve having a high dose of 10 μM. Two-μL aliquots of these were transferred to a fresh plate for a ten-fold intermediate dilution with assay buffer. Five-μL aliquots of the diluted compounds were then transferred to 20-μL of assay mixtures described in Examples A, B, C and D for a final concentration of DMSO of 2%. A standard or reference compound was typically included on each assay plate to validate that plate. For each plate, percent of control (POC) values were calculated for each well according to the following equation: […]
(§4) IC50's were estimated from the POC's using a standard 4-parameter logistic model:
(§5) The IC50 is defined as the concentration of inhibitor at which the POC equals 50 for the fitted curve.
Compounds of Formula I were screened for their ability to inhibit Tyk2 using the general enzyme inhibition assay method, in which the assay mixture contained 10 μM (Km app) or 1 mM ATP, 8 μM Omnia® Y12 peptide (Catalog #IVGN KPZ3121C; Invitrogen Corporation, Carlsbad, Calif.) and 2 nM Tyk2 in a total volume of 20 μL. Human Tyk2 kinase domain, comprising amino acids 886 to 1187 with 10 additional histidine residues (histidine tag) on the carboxy terminus, was expressed and purified from bacculovirus in-house at Array BioPharma Inc. (Boulder, Colo.). The histidine tag was cleaved after purification using standard conditions.

JAK1 = molecular target: T2, JAK1 (Homo sapiens, UniProt P23458); experiment: JAK1 Inhibition Assay (Omnia kinase fluorescence peptide substrate); conditions: averaged IC50 ranges; 40 μM (Km app) or 1 mM ATP, 15 nM JAK1
T2 construct: purchased Invitrogen Corporation, Carlsbad, Calif; IVGN PV4775
T2 sequence (P23458 whole entry): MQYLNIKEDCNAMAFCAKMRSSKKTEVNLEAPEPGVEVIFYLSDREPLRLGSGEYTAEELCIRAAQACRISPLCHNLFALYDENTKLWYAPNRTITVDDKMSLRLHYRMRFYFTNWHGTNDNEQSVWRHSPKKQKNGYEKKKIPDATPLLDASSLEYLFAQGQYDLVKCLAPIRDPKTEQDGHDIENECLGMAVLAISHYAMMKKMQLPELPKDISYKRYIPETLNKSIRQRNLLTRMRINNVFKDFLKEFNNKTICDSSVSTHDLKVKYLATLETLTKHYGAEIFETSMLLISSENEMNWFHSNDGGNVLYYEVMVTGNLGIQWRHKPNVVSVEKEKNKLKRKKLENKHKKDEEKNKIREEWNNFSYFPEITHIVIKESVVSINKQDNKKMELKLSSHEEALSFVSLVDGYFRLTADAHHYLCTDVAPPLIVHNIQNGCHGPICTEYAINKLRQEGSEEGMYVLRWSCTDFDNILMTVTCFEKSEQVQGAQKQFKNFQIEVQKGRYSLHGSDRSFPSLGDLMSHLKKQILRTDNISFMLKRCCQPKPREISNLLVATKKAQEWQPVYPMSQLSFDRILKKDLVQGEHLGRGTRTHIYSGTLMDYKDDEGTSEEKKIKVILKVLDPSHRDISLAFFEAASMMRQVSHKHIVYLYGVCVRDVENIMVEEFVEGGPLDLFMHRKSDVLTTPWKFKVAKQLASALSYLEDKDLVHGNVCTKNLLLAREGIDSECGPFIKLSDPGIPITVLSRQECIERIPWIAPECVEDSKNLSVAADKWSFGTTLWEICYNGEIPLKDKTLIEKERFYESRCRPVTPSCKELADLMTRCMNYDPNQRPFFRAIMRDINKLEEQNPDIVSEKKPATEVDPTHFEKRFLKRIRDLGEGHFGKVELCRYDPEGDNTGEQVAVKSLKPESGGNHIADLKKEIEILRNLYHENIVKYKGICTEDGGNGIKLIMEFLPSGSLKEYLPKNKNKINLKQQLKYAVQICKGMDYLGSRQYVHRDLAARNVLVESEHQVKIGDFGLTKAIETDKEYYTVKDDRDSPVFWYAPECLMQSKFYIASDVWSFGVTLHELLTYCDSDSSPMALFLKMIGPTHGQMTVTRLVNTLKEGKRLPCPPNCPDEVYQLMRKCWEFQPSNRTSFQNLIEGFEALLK
Text: as §1, §2, §3, §4, §5
Compounds of Formula I were screened for their ability to inhibit JAK1 using the general enzyme inhibition assay method, in which the assay mixture contained 40 μM (Km app) or 1 mM ATP, 8 μM Omnia® Y12 peptide (Catalog #IVGN KPZ3121C; Invitrogen Corporation, Carlsbad, Calif.) and 15 nM JAK1 in a total volume of 20 μL. JAK1 was purchased from Invitrogen Corporation, Carlsbad, Calif. (catalog #IVGN PV4775).

JAK2 = molecular target: T3, JAK2 (Homo sapiens, UniProt O60674); experiment: JAK2 Inhibition Assay (Omnia kinase fluorescence peptide substrate); conditions: averaged IC50 ranges; 25 μM (Km app) or 1 mM ATP, 5 nM JAK2
T3 construct: purchased Invitrogen Corporation, Carlsbad, Calif; IVGN PV4288
T3 sequence (O60674 whole entry): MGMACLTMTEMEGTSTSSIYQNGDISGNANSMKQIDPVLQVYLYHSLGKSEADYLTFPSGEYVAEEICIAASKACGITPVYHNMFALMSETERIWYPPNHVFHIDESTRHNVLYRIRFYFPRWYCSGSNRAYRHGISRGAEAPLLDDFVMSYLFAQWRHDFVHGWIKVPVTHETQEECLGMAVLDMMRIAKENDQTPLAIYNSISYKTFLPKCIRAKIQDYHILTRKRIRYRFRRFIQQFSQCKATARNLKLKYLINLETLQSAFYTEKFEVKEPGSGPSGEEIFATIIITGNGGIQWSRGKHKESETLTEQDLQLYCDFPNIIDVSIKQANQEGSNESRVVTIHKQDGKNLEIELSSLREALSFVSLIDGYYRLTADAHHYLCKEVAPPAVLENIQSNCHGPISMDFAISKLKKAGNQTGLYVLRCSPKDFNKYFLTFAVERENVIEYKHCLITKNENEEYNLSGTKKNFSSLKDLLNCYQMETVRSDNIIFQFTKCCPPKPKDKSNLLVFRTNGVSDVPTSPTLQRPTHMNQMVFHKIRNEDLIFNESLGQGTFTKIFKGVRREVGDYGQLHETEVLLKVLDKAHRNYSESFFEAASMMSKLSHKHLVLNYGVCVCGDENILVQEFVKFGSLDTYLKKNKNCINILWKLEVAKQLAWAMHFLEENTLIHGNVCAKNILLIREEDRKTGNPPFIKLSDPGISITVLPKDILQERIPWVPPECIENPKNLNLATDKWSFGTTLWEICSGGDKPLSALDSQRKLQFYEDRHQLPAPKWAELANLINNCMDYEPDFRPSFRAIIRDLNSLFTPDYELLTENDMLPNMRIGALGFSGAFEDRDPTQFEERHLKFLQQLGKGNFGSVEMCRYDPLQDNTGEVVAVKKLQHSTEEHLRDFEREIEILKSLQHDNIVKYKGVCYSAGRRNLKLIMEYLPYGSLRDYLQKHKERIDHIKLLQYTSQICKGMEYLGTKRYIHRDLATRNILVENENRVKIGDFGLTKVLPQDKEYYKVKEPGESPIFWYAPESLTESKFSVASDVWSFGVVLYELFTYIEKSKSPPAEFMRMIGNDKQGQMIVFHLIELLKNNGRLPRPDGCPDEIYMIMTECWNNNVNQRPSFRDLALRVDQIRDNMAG
Text: as §1, §2, §3, §4, §5
(§6) Compounds of Formula I were screened for their ability to inhibit JAK2 using the general enzyme inhibition assay method, in which the assay mixture contained 25 μM (Km app) or 1 mM ATP, 10 μM Omnia® Y7 peptide (Catalog #IVGN KNZ3071C, Invitrogen Corporation, Carlsbad, Calif.) and 5 nM JAK2 in a total volume of 20 μL. JAK2 was purchased from Invitrogen Corporation, Carlsbad, Calif. (catalog #IVGN PV4288).

JAK3 = molecular target: T4, JAK3 (Homo sapiens, UniProt P52333); experiment: JAK3 Inhibition Assay (Omnia kinase fluorescence peptide substrate); conditions: averaged IC50 ranges; 10 μM (Km app) or 1 mM ATP, 2.5 nM JAK3
T4 construct: purchased Invitrogen Corporation, Carlsbad, Calif; IVGN PV4080
T4 sequence (P52333 1-1124): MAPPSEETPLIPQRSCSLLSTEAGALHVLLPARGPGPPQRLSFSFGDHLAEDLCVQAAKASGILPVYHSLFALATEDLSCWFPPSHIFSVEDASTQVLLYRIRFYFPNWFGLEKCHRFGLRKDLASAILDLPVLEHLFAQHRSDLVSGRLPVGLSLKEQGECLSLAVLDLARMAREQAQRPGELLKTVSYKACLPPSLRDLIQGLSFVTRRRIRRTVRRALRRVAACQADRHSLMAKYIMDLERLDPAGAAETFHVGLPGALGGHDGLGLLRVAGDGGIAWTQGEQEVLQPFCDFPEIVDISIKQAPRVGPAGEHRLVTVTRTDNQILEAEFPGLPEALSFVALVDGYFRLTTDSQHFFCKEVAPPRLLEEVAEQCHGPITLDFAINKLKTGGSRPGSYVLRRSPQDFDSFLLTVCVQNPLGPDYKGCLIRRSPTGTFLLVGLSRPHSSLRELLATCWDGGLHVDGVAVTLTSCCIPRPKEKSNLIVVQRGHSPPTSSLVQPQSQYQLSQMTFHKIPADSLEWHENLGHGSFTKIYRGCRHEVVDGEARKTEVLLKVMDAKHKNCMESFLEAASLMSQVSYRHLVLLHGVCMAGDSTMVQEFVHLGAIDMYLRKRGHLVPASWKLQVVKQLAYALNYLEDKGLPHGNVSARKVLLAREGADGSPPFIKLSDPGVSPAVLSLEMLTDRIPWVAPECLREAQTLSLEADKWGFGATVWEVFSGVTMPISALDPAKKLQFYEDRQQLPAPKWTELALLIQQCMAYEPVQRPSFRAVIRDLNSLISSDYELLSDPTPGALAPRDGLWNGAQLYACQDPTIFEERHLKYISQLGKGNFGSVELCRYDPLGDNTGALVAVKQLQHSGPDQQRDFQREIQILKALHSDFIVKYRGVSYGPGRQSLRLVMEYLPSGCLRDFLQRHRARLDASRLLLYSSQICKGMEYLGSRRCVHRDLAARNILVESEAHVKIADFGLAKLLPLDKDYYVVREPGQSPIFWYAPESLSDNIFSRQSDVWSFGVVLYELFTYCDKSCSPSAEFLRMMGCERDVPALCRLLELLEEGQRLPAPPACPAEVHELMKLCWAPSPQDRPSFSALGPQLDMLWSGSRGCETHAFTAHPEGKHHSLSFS
Text: as §1, §2, §3, §4, §5
as §6, with “JAK3” for “JAK2”, “10” for “25”, “2.5” for “5”, “PV4080).” for “PV4288).”

| IC50 (Human Tyk2 kinase domain) [nM] | IC50 (JAK1) [nM] | IC50 (JAK2) [nM] | IC50 (JAK3) [nM] | SMILES |
| --- | --- | --- | --- | --- |
| < 10 | 10 to 100 | 10 to 100 | 10 to 100 | Cn1cc(-c2cc3nccn3c(-c3ccn(C(CCF)C4CC4)c3)n2)cn1 (stereo not shown) [Example 25, 5-(1-(1-cyclopropyl-3-fluoropropyl)-1H-pyrrol-3-yl)-7-(1-methyl-1H-pyrazol-4-yl)imidazo[1,2-c]pyrimidine] |
| < 10 | 10 to 100 | 10 to 100 | 10 to 100 | Cn1cc(-c2cc3nccn3c(-c3ccn(C4(CCF)CN(S(=O)(=O)C(F)(F)F)C4)c3)n2)cn1 [Example 26, 5-(1-(3-(2-fluoroethyl)-1-((trifluoromethyl)sulfonyl)azetidin-3-yl)-1H-pyrrol-3-yl)-7-(1-methyl-1H-pyrazol-4-yl)imidazo[1,2-c]pyrimidine] |
| < 10 | 10 to 100 | 10 to 100 | 10 to 100 | C=CC1(n2ccc(-c3nc(-c4cnn(C)c4)cc4nccn34)c2)CN(S(=O)(=O)C(F)(F)F)C1 [Example 27, 7-(1-methyl-1H-pyrazol-4-yl)-5-(1-(1-((trifluoromethyl)sulfonyl)-3-vinylazetidin-3-yl)-1H-pyrrol-3-yl)imidazo[1,2-c]pyrimidine] |
| 10 to 100 | 100 to 1000 | 10 to 100 | 100 to 1000 | Cn1cc(-c2cc3nccn3c(-c3ccn([C@H](CCF)[C@@H]4CC4(F)F)c3)n2)cn1 [Example 28, 5-(1-((R)-1-((S)-2,2-difluorocyclopropyl)-3-fluoropropyl)-1H-pyrrol-3-yl)-7-(1-methyl-1H-pyrazol-4-yl)imidazo[1,2-c]pyrimidine] |
| 10 to 100 | 100 to 1000 | 10 to 100 | 100 to 1000 | Cn1cc(-c2cc3nccn3c(-c3cnn(C(CCCF)C4CC4)c3)n2)cn1 (stereo not shown) [Example 30, 5-(1-(1-cyclopropyl-4-fluorobutyl)-1H-pyrazol-4-yl)-7-(1-methyl-1H-pyrazol-4-yl)imidazo[1,2-c]pyrimidine] |
| 100 to 1000 | 100 to 1000 | 100 to 1000 | 100 to 1000 | COCCC(C1CC1(F)F)n1cc(-c2nc(-c3cnn(C)c3)cc3nccn23)cn1 (stereo not shown) [Example 31] |
| < 10 | < 10 | < 10 | 10 to 100 | Cn1cc(-c2cc3nccn3c(-c3cnn(C4(CC=C(F)F)CN(S(=O)(=O)C(F)(F)F)C4)c3)n2)cn1 [Example 32, 5-(1-(3-(3,3-difluoroallyl)-1-((trifluoromethyl)sulfonyl)azetidin-3-yl)-1H-pyrazol-4-yl)-7-(1-methyl-1H-pyrazol-4-yl)imidazo[1,2-c]pyrimidine] |
| 10 to 100 | 10 to 100 | 10 to 100 | 100 to 1000 | CCOCCC1(n2cc(-c3nc(-c4cnn(C)c4)cc4nccn34)cn2)CN(S(=O)(=O)C(F)(F)F)C1 [Example 33, 5-(1-(3-(2-ethoxyethyl)-1-((trifluoromethyl)sulfonyl)azetidin-3-yl)-1H-pyrazol-4-yl)-7-(1-methyl-1H-pyrazol-4-yl)imidazo[1,2-c]pyrimidine] |
| 100 to 1000 | > 1000 | 100 to 1000 | > 1000 | Cn1cc(-c2cc3nccn3c(-c3cnn(C4CCCC4)c3)n2)cn1 [Example 34, 5-(1-cyclopentyl-1H-pyrazol-4-yl)-7-(1-methyl-1H-pyrazol-4-yl)imidazo[1,2-c]pyrimidine] |
| 100 to 1000 | > 1000 | > 1000 | > 1000 | Cn1cc(-c2cc3nccn3c(-c3cnn(C(CCO)C4CC4(F)F)c3)n2)cn1 (stereo not shown) [Example 35, 3-(2,2-difluorocyclopropyl)-3-(4-(7-(1-methyl-1H-pyrazol-4-yl)imidazo[1,2-c]pyrimidin-5-yl)-1H-pyrazol-1-yl)propan-1-ol] |
| < 10 | 100 to 1000 | 10 to 100 | 100 to 1000 | Cn1cc(-c2cc3nccn3c(-c3cnn([C@H](CCF)C4CCC4)c3)n2)cn1 [Example 36, (R)-5-(1-(1-cyclobutyl-3-fluoropropyl)-1H-pyrazol-4-yl)-7-(1-methyl-1H-pyrazol-4-yl)imidazo[1,2-c]pyrimidine] |
| 10 to 100 | 100 to 1000 | 100 to 1000 | 100 to 1000 | Cn1cc(-c2cc3nccn3c(-c3cnn([C@@H](CCF)C4CCC4)c3)n2)cn1 [Example 37, (S)-5-(1-(1-cyclobutyl-3-fluoropropyl)-1H-pyrazol-4-yl)-7-(1-methyl-1H-pyrazol-4-yl)imidazo[1,2-c]pyrimidine] |
| 100 to 1000 | > 1000 | 100 to 1000 | > 1000 | C/C=C/[C@H](C1CC1)n1cc(-c2nc(-c3cnn(C)c3)cc3nccn23)cn1 [Example 38, (S,E)-5-(1-(1-cyclopropylbut-2-en-1-yl)-1H-pyrazol-4-yl)-7-(1-methyl-1H-pyrazol-4-yl)imidazo[1,2-c]pyrimidine] |
